PubChem BioAssay (NCI)
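How tested: cells in 96-well plates exposed to compound for 48 hours at five concentrations. TGI denotes the concentration required for complete inhibition of growth.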

How the values were obtained:
Test in all cases: growth of human tumour cells (NCI), 48 h
OVCAR-5 ovarian = test system: OVCAR-5 ovarian
T-47D breast = test system: T-47D breast
NCI-H226 lung = test system: NCI-H226 lung
HCC-2998 colon = test system: HCC-2998 colon
HOP-62 NSCLC = test system: HOP-62 NSCLC
EKVX NSCLC = test system: EKVX NSCLC
UACC-62 melanoma = test system: UACC-62 melanoma
NCI-H460 lung = test system: NCI-H460 lung
OVCAR-3 ovarian = test system: OVCAR-3 ovarian
SK-MEL-5 melanoma = test system: SK-MEL-5 melanoma

Compound | TGI (OVCAR-5 ovarian) [µM] | TGI (T-47D breast) [µM] | TGI (NCI-H226 lung) [µM] | TGI (HCC-2998 colon) [µM] | TGI (HOP-62 NSCLC) [µM] | TGI (EKVX NSCLC) [µM] | TGI (UACC-62 melanoma) [µM] | TGI (NCI-H460 lung) [µM] | TGI (OVCAR-3 ovarian) [µM] | TGI (SK-MEL-5 melanoma) [µM]
Brc1cccc(Nc2nc(-c3cccs3)nc3ccc(Br)cc23)c1 | 98.2 | > 100 | > 100 | 42.1 | > 100 | 98.1 | 35.8 | > 100 | 82.1 | 30.9
COc1ccc(C2(CC(C)O)SCCCS2)cc1 (stereo not given) | > 100 | > 100 | > 100 | > 100 | > 100 | > 100 | > 100 | > 100 | > 100 | > 100
CCCNC(=O)CCC(C)[C@H]1CCC2C3C(C[C@H](OC(C)=O)[C@@]21C)[C@@]1(C)CCC2(C[C@H]1C[C@H]3OC(C)=O)OOC1(CCC(C)CC1)OO2 (stereo not given in full) | 87.4 | 38.4 | > 100 | 79.1 | 3.47 | 30.6 | > 100 | 71.2 | 18.5 | 28.6
O=P(c1ccccc1)(c1ccccc1)N1O[C@@H](c2ccccc2)C=C[C@H]1c1ccccc1 | 32.1 | 20 | 29.4 | 27.5 | 46.5 | 24.1 | 19.5 | 20.1 | 27.8 | 24.6
CCN(CCO)CC1COc2ccccc2O1 (stereo not given) | > 100 | > 100 | > 100 | > 100 | > 100 | > 100 | > 100 | > 100 | > 100 | > 100
CCOC(=O)c1c(-c2ccc(OC)cc2)c(C#N)c(=S)n(C2OC(COC(C)=O)C(OC(C)=O)C(OC(C)=O)C2OC(C)=O)c1C (stereo not given) | > 100 | > 100 | > 100 | > 100 | > 100 | > 100 | > 100 | > 100 | > 100 | > 100
O=C1C[C@H](Sc2ccccc2)C2(OCCO2)[C@@H](Sc2ccccc2)C1 | 12.3 | > 43.5 | 6.03 | 6.42 | 13.6 | 17.1 | 4.63 | > 44.5 | 7.94 | 4.23
Oc1ccccc1/C=N/c1nc2cc3sc(/N=C/c4ccccc4O)nc3cc2s1 | > 100 | > 100 | 98.5 | > 100 | > 100 | > 100 | > 100 | > 100 | > 100 | > 100
O=c1cc(N=P(c2ccccc2)(c2ccccc2)c2ccccc2)n(-c2ccccc2)c(=O)n1-c1ccccc1 | > 100 | 55.2 | 22.2 | 69.7 | 32.4 | 49.8 | 39.6 | 22 | 32.3 | 24.1
O=C1c2cc3c(cc2CC1Br)CCC3 (stereo not given) | 14.9 | 5.68 | 11.4 | 13.4 | 30.8 | 28.9 | 11.7 | 56.2 | 3.86 | 3.36
